From PMC8329197, “Compounds targeting OSBPL7 increase ABCA1-dependent cholesterol efflux preserving kidney function in two models of kidney disease” (Nature Communications, 2021)
Where “and” joins values, the source holds several entries; their conditions need not be identical. Identical values can stand only once.

How the values were obtained:
[1] = system: Adriamycin (ADR)-induced nephropathy in Balb/c mice; experiment: ADR nephropathy: kidney cortex lipids (cholesterol ester, total cholesterol, triglycerides, Oil-red O); format: in vivo, mouse
Experimental: OCT embedded kidney cortex samples were cryosectioned at 4 μm thickness and stained with Oil-Red O-isopropanol solution (Electron Microscopy Science, PA) diluted 6:4 in water, and then counterstained with Hematoxylin Harris Hg Free (VWR, PA). Sections were then evaluated using a light microscope (Olympus BX 41, Tokyo, Japan).
Snap frozen kidney cortex samples were homogenized in 2 mM potassium phosphate buffer, pH 7, (10 µl buffer/mg tissue) using a glass douncer on ice. 100 μl of the homogenate were mixed thoroughly with 1 ml of hexane:isopropanol (3:2;v:v) per volume of tissue homogenate. The aqueous (pellet) and organic (supernatant) phases were separated by centrifugation at 12,000 × g for 5 min. Pellets (aqueous phase) were dried, reconstituted in 8 M urea, 0.1% SDS, 0.1 M NaOH, and total proteins were quantified by the BCA method (Thermofisher). The organic phase was dried by exposure to nitrogen. Lipids were then reconstituted in 100 µl isopropanol:NP-40 (9:1;v:v). Triglyceride content was assayed using a colorimetric kit according to the manufacturer’s instructions (Cayman Chemical USA). Total cholesterol and CE content were assayed using an enzymatic fluorometric method. For total cholesterol measurement, extracts were diluted 1:100 in assay buffer (100 mM potassium phosphate, 50 mM NaCl, 5 mM cholic acid, 0.1% Triton […], pH 7.4) containing cholesterol oxidase (1 U/ml), cholesterol esterase (1 U/ml), horseradish peroxidase (1 U/ml), and Amplex Red (75 µM). The reactions were incubated at 37 °C for 30 min in a black opaque 96-well plate (Greiner) and fluorescence was measured in a microplate reader (Spectramax i3X, Molecular Devices) at 530 nm excitation and 580 emission.
For CE determination, 150 µl of the assay buffer described above, supplemented with bovine liver catalase (45 U/ml) and cholesterol oxidase (1 U/ml), was added to 25 μl of sample and incubated overnight at 37 °C to deplete free cholesterol leaving only cholesterol esters. Then, 75 µl of cholesterol ester detection reagent (1 U/ml cholesterol oxidase, 4 U/ml cholesterol esterase, 24 U/ml horseradish peroxidase, 300 µM Amplex Red) was added. The reaction was incubated at 37 °C for 30 min and the fluorescence signal was measured as described above. Internal standards included samples containing 1 mM of cholesterol and 5 μM of cholesterol oleate in order to verify the completeness of the enzymatic decomposition of free cholesterol as well as assay sensitivity and specificity.

[2] = system: Adriamycin (ADR)-induced nephropathy in Balb/c mice; experiment: ADR nephropathy: serum cholesterol and triglycerides; format: in vivo, mouse
[3] = system: Adriamycin (ADR)-induced nephropathy in Balb/c mice; experiment: ADR nephropathy: blood urea nitrogen (BUN) and serum creatinine; format: in vivo, mouse; conditions: 28 days treatment
Source text: Supplement 41467_2021_24890_MOESM5_ESM.xlsx, sheet "Supplementary Table 4" | column: ADR+ Cpd A; ADR+ Cpd G; ADR+ Cpd C

[4] = system: Adriamycin (ADR)-induced nephropathy in Balb/c mice; experiment: Adriamycin-induced nephropathy, dose-finding pilot study: ACR and body weight time course; conditions: ADR, 10 mg/Kg/day, individual mice, 10 mg/kg/day
[5] = ADR-injected mice, 28-day treatment, 25th quartile
[6] = ADR-injected mice, 28-day treatment, 75th quartile
[7] = ADR-injected mice, 28-day treatment, group maximum
[8] = ADR-injected mice, 28-day treatment, group median
[9] = ADR-injected mice, 28-day treatment, group minimum
[10] = ADR-injected mice, 28-day treatment, individual mouse values

## Cc1oc(-c2cccc(C(F)(F)F)c2)nc1Cn1c(C)cc2cc(C(O)(C(F)(F)F)C(F)(F)F)ccc21 [Cpd C, reference compound]
[1]; ADR model, individual animals
  KIDNEY CORTEX TOTAL CHOLESTEROL: 169.86 nmol Chol./mg protein and 129.15 nmol Chol./mg protein and 254.63 nmol Chol./mg protein and 268.95 nmol Chol./mg protein and 152.74 nmol Chol./mg protein and 180.44 nmol Chol./mg protein and 182.39 nmol Chol./mg protein and 272.02 nmol Chol./mg protein and 254.98 nmol Chol./mg protein
  KIDNEY CORTEX TRIGLYCERIDES: 43.01 nmol Triglyceride /mg protein and 83.04 nmol Triglyceride /mg protein and 58.7 nmol Triglyceride /mg protein and 29.67 nmol Triglyceride /mg protein and 36.87 nmol Triglyceride /mg protein and 243.76 nmol Triglyceride /mg protein and 196.92 nmol Triglyceride /mg protein and 133.68 nmol Triglyceride /mg protein and 574.71 nmol Triglyceride /mg protein
[1]; ADR, Cpd C 10 mg/Kg
  Animals with higher triglyceride content in kidney cortexes: about 30%
[2]; ADR model, individual animals
  SERUM CHOLESTEROL: 104 and 64 and 223 and 112 and 98 and 124 and 145 and 136 and 60
  SERUM TRIGLYCERIDES: 57 and 182 and 112 and 55 and 91 and 62 and 66 and 44
[2]; [5]
  Serum cholesterol, QR(25): 98 mg/dL
  Serum triglycerides, QR(25): 57 mg/dL
[2]; [6]
  Serum cholesterol, QR(75): 136 mg/dL
  Serum triglycerides, QR(75): 91 mg/dL
[2]; [7]
  Serum cholesterol, Max: 223 mg/dL
  Serum triglycerides, Max: 182 mg/dL
[2]; [8]
  Serum cholesterol, Median: 112 mg/dL
  Serum triglycerides, median: 62 mg/dL
[2]; [9]
  Serum cholesterol, Min: 60 mg/dL
  Serum triglycerides, Min: 44 mg/dL
[2]; [10]
  SERUM CHOLESTEROL: 64 mg/dL and 223 mg/dL and 112 mg/dL and 98 mg/dL and 124 mg/dL and 145 mg/dL and 136 mg/dL and 60 mg/dL and 104 mg/dL
  SERUM TRIGLYCERIDES: 57 mg/dL and 62 mg/dL and 66 mg/dL and 44 mg/dL and 182 mg/dL and 112 mg/dL and 55 mg/dL and 91 mg/dL
[2]; serum, after ADR challenge
  Cholesterol (mg/dL), Median(IQR): 112(81-141) mg/dL
  Cholesterol (mg/dL), Range: 60 to 223 mg/dL
  Cholesterol, % of the group> 112 mg/dL: 30%
  Triglycerides (mg/dL), Median(IQR): 62(56-102) mg/dL
  Triglycerides (mg/dL), Range: 44 to 182 mg/dL
[3]; 25th quartile
  BUN, QR(25): 16 mg/dL
  sCre, QR(25): 0.09 mg/dL
[3]; 75th quartile
  BUN, QR(75): 20 mg/dL
  sCre, QR(75): 0.16 mg/dL
[3]; group maximum
  BUN, Max: 51 mg/dL
  sCre, Max: 0.47 mg/dL
[3]; group median
  BUN, Median: 17 mg/dL
  sCre, Median: 0.12 mg/dL
[3]; group minimum
  BUN, Min: 13 mg/dL
  sCre, Min: 0.09 mg/dL
[3]; individual mouse values
  Blood Urea nitrogen (BUN): 13 mg/dL and 32 mg/dL and 18 mg/dL and 16 mg/dL and 20 mg/dL and 51 mg/dL and 17 mg/dL
  Serum Creatinine sCre: 0.16 mg/dL and 0.47 mg/dL and 0.12 mg/dL and 0.09 mg/dL and 0.29 mg/dL and 0.14 mg/dL
[4]; 0 days after inj
  Body Weight: 20 grams and 18 grams (2×) and 19 grams (2×)
[4]; 7 days after inj
  ACR in spot urine: 0.033 mg Albumin/ mg Creatinine in urine and 0.087 mg Albumin/ mg Creatinine in urine and 0.021 mg Albumin/ mg Creatinine in urine and 0.039 mg Albumin/ mg Creatinine in urine and 0.361 mg Albumin/ mg Creatinine in urine
  Body Weight: 19 grams (2×) and 17 grams and 18 grams (2×)
[4]; 14 days after inj
  ACR in spot urine: 43.998 mg Albumin/ mg Creatinine in urine and 97.732 mg Albumin/ mg Creatinine in urine and 170.881 mg Albumin/ mg Creatinine in urine and 0.773 mg Albumin/ mg Creatinine in urine and 96.907 mg Albumin/ mg Creatinine in urine
  Body Weight: 18 grams (2×) and 15 grams and 17 grams (2×)
[4]; 21 days after inj
  ACR in spot urine: 110.345 mg Albumin/ mg Creatinine in urine and 164.518 mg Albumin/ mg Creatinine in urine and 91.2 mg Albumin/ mg Creatinine in urine and 9.219 mg Albumin/ mg Creatinine in urine and 93.57 mg Albumin/ mg Creatinine in urine
  Body Weight: 18 grams (2×) and 13 grams and 19 grams and 16 grams
[4]; 28 days after inj
  ACR in spot urine: 28.989 mg Albumin/ mg Creatinine in urine and 87.25 mg Albumin/ mg Creatinine in urine and 19.88 mg Albumin/ mg Creatinine in urine and 5.463 mg Albumin/ mg Creatinine in urine and 97.01 mg Albumin/ mg Creatinine in urine
  Body Weight: 19 grams (2×) and 13 grams and 20 grams and 16 grams
